Laboratory results reported in PMC10746543, “Design principles for cyclin K molecular glue degraders” (Nature Chemical Biology, 2023).
Values joined by “and” are separate entries in the source; they are usually repeats but may differ in a detail not shown here. Equal entries are not always repeated. Where two headings read alike, the source gives them in different places. Values belong to the compound of their own block, whether it stands above or below them.

Experiments:
HEK293T cells = assay: Drug sensitivity assay (CellTiter-Glo viability) with or without MLN4924 pretreatment; assay type: cell-based, human; settings: for EC50: Homo sapiens, HEK-293T; for Toxicity rescue: MLN4924-mediated cytotoxicity rescue, 10 µM used where n.d.
Procedure, shortened: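 Viability of HEK293T–Cas9 cells was compared after 3-day drug treatment with or without 100 nM MLN4924 pretreatment (2 h, versus DMSO). Values are CellTiter-Glo signals relative to DMSO controls.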

CDK12–cyclin K = CDK12–cyclin K (Homo sapiens, UniProt Q9NYV4); assay: Lanthascreen kinase binding assay, CDK12; settings: for IC50: Supplementary Table 2, read-out: Lanthascreen IC50 [nM] CDK12; for Lanthascreen raw signal, sheet CDK12: series r1, duplicates
Sequence of CDK12–cyclin K (Q9NYV4 713-1052): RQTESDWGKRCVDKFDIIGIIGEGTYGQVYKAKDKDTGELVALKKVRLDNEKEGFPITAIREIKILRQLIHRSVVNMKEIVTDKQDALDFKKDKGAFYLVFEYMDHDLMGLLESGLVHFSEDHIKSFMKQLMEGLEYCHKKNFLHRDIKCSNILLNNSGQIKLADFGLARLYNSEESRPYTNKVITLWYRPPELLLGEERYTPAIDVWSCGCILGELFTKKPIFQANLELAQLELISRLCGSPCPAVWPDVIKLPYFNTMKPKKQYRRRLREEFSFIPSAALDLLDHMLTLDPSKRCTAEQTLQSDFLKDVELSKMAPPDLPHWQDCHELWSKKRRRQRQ
Sequence of CDK12–cyclin K (O75909 1-267 partner limits assumed): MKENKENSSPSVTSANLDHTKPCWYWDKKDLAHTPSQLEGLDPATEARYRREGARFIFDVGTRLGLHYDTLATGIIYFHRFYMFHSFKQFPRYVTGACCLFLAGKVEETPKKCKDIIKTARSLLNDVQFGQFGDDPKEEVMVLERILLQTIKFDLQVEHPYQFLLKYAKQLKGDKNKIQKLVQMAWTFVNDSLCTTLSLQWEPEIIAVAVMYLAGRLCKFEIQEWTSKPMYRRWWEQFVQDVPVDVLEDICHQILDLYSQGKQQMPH
Experimental: (§1) Lanthascreen experiments were performed using commercially available reagents (Thermo Fisher) and according to the manufacturer’s instructions.

[1] = test system: cyclin K–eGFP degradation reporter; assay: Cyclin K reporter stability analysis (dual-color cyclin K–eGFP reporter); assay type: cell-based, human; settings: source data sheet correlations; read-out: DC50
Procedure, shortened: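 A 5 h treatment of HEK293T–Cas9 cells expressing the degradation reporter preceded flow cytometry; eGFP over mCherry, normalized to DMSO.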

CDK2–cyclin A = biological target: T1, CDK2–cyclin A (Homo sapiens, UniProt P24941); assay: Lanthascreen kinase binding assay, CDK2; settings: for Lanthascreen signal, sheet CDK2: raw replicates, experiment r1-r11
T1 construct: purchased Thermo Fisher
Experimental: as §1

CDK9–cyclin T = biological target: T2, CDK9–cyclin T (Homo sapiens, UniProt P50750); assay: Lanthascreen kinase binding assay, CDK9; settings: for Lanthascreen TR-FRET signal (raw ratio), sheet CDK9: first titration set (r1), duplicates
T2 construct: purchased Thermo Fisher
T2 sequence (P50750 whole entry): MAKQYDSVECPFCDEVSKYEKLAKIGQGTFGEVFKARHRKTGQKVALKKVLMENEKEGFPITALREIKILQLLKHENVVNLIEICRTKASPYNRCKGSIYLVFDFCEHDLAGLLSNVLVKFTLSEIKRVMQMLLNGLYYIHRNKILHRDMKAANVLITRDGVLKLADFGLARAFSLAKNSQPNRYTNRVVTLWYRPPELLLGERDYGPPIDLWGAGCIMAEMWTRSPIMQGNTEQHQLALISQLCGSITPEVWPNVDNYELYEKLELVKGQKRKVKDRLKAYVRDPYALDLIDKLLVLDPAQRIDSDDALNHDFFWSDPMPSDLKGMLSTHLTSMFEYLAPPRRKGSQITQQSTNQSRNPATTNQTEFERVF
T2 sequence (O60563 whole entry partner): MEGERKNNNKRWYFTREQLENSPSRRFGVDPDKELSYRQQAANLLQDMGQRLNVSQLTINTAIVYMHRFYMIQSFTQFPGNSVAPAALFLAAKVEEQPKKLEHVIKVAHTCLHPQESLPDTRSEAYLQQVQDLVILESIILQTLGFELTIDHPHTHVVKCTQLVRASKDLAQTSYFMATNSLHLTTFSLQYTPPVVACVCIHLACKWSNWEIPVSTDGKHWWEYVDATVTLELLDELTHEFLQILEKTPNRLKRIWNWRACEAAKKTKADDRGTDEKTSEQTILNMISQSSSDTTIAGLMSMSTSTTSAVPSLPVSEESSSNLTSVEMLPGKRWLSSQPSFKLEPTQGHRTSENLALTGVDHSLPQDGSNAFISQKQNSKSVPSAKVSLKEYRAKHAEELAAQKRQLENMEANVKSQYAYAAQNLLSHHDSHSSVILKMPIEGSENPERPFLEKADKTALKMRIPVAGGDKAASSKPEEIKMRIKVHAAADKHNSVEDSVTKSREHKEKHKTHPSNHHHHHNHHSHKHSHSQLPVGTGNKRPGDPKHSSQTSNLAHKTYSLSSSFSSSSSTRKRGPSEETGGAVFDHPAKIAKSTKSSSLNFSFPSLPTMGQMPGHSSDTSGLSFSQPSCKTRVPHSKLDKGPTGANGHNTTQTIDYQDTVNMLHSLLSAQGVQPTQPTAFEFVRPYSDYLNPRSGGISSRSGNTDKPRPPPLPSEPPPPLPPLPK
Experimental: as §1

CDK12–cyclin K and DDB1 = biological target: T3, CDK12–cyclin K and DDB1 (Homo sapiens, UniProt Q16531+Q9NYV4, K965R); assay: TR-FRET ternary complex formation assay (compound titration); assay type: binding
T3 construct: His6–CDK12 (a.a. 713–1,052); full-length or beta-propeller B domain deletion (ΔBPB: a.a. 396–705 deleted) constructs of His6–DDB1ΔBPB, StrepII–Avi–DDB1, or His6–Spy–DDB1; made in house; host or cells: Trichoplusia ni High Five insect cells (baculovirus)
T3 sequence (Q9NYV4 713-1052 K965R): as the sequence (Q9NYV4 713-1052) above, with K253R counted along it
T3 sequence (O75909 1-267 partner): as the sequence (O75909 1-267 partner limits assumed) above
T3 sequence (Q16531 whole entry): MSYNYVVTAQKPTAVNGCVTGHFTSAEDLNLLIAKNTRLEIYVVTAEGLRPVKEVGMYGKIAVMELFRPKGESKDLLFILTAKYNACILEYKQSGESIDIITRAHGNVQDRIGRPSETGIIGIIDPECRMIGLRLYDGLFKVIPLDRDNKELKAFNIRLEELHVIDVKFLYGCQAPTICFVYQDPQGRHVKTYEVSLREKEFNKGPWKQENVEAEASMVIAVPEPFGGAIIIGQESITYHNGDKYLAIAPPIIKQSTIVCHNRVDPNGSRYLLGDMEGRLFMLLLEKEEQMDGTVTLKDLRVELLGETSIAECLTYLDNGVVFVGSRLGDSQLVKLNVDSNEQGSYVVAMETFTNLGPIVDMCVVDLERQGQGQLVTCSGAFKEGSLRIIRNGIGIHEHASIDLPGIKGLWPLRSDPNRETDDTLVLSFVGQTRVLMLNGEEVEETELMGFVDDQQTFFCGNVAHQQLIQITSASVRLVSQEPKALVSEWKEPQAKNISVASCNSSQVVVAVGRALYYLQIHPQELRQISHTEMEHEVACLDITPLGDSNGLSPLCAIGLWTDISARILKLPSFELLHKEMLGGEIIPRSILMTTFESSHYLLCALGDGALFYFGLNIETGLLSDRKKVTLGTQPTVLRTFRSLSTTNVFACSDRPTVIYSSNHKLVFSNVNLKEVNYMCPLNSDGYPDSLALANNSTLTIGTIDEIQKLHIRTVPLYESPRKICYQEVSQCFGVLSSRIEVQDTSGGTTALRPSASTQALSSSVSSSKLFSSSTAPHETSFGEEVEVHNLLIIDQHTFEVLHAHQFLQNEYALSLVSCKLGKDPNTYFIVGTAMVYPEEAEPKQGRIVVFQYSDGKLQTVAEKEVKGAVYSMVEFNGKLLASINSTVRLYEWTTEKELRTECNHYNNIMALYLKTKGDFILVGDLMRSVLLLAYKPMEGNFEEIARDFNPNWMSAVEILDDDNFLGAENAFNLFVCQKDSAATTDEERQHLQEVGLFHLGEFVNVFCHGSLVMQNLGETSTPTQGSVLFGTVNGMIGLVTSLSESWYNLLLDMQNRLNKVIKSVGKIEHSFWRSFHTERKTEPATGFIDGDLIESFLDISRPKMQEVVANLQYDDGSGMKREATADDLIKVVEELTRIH
Procedure, shortened: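 Delayed (70 μs) time-resolved read; FRET computed as 520 nm over 490 nm emission.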

[2] = Supplementary Table 2, HEK293T viability, 72 h, compound alone, read-out: Cellular assays EC50
[3] = Lanthascreen, average, Extended Data Fig. 8, read-out: CDK2 IC50
[4] = Supplementary Table 2, read-out: Lanthascreen IC50 [nM] CDK2
[5] = Supplementary Table 2, read-out: Lanthascreen IC50 [nM] CDK9
[6] = source data sheet correlations, read-out: TR-FRET EC50

IC50 (CDK12–cyclin K): 3220 nM | Lanthascreen raw signal, sheet CDK12 (CDK12–cyclin K; compound 1.02544 nM): 0.009169 and 0.008974 | Lanthascreen raw signal, sheet CDK12 (CDK12–cyclin K; compound 3.15521 nM): 0.009884 and 0.009801 | Lanthascreen raw signal, sheet CDK12 (CDK12–cyclin K; compound 9.46563 nM): 0.008091 and 0.0101 | Lanthascreen raw signal, sheet CDK12 (CDK12–cyclin K; compound 31.5521 nM): 0.00922 and 0.009965 | Lanthascreen raw signal, sheet CDK12 (CDK12–cyclin K; compound 99.3891 nM): 0.01122 and 0.009922 | Lanthascreen raw signal, sheet CDK12 (CDK12–cyclin K; compound 315.521 nM): 0.009639 and 0.01064 | Lanthascreen raw signal, sheet CDK12 (CDK12–cyclin K; compound 3155.21 nM): 0.00898 and 0.008785 | Lanthascreen raw signal, sheet CDK12 (CDK12–cyclin K; compound 10002 nM): 0.007994 and 0.007932 | DC50 [1]: 0.436 µM | Lanthascreen signal, sheet CDK2 (CDK2–cyclin A; Compound 1.02544 nM): 0.007579 and 0.009377 | Lanthascreen signal, sheet CDK2 (CDK2–cyclin A; Compound 3.15521 nM): 0.00995 and 0.009356 | Lanthascreen signal, sheet CDK2 (CDK2–cyclin A; Compound 9.46563 nM): 0.01093 and 0.01062 | Lanthascreen signal, sheet CDK2 (CDK2–cyclin A; Compound 31.5521 nM): 0.01004 and 0.01088 | Lanthascreen signal, sheet CDK2 (CDK2–cyclin A; Compound 99.3891 nM): 0.009456 and 0.01029 | Lanthascreen signal, sheet CDK2 (CDK2–cyclin A; Compound 315.521 nM): 0.0104 and 0.01024 | Lanthascreen signal, sheet CDK2 (CDK2–cyclin A; Compound 3155.21 nM): 0.01031 and 0.01162 | Lanthascreen signal, sheet CDK2 (CDK2–cyclin A; Compound 10002 nM): 0.01102 and 0.01013 | IC50 (CDK2–cyclin A; [3]): > 10000 nM | IC50 (CDK2–cyclin A; [4]): > 10000 nM | IC50 (CDK9–cyclin T; Lanthascreen, average, Extended Data Fig. 8, read-out: CDK9 IC50): > 10000 nM | IC50 (CDK9–cyclin T; [5]): > 10000 nM | Lanthascreen TR-FRET signal (raw ratio), sheet CDK9 (CDK9–cyclin T; compound 1.02544 nM): 0.0144 and 0.01353 | Lanthascreen TR-FRET signal (raw ratio), sheet CDK9 (CDK9–cyclin T; compound 3.15521 nM): 0.01322 and 0.01379 | Lanthascreen TR-FRET signal (raw ratio), sheet CDK9 (CDK9–cyclin T; compound 9.46563 nM): 0.01482 and 0.01443 | Lanthascreen TR-FRET signal (raw ratio), sheet CDK9 (CDK9–cyclin T; compound 31.5521 nM): 0.01456 and 0.01497 | Lanthascreen TR-FRET signal (raw ratio), sheet CDK9 (CDK9–cyclin T; compound 99.3891 nM): 0.0144 and 0.01356 | Lanthascreen TR-FRET signal (raw ratio), sheet CDK9 (CDK9–cyclin T; compound 315.521 nM): 0.01557 and 0.0126 | Lanthascreen TR-FRET signal (raw ratio), sheet CDK9 (CDK9–cyclin T; compound 3155.21 nM): 0.01348 and 0.01509 | Lanthascreen TR-FRET signal (raw ratio), sheet CDK9 (CDK9–cyclin T; compound 10002 nM): 0.008815 and 0.01082 | TR-FRET signal (CDK12–cyclin K and DDB1; compound concentration 3.6 nM): 0.4206 and 0.3705 | TR-FRET signal (CDK12–cyclin K and DDB1; compound concentration 4.68 nM): 0.1751 and 0.204 | TR-FRET signal (CDK12–cyclin K and DDB1; compound concentration 15.84 nM): 0.7002 and 0.5772 | TR-FRET signal (CDK12–cyclin K and DDB1; compound concentration 21.6 nM): 0.3896 and 0.4045 | TR-FRET signal (CDK12–cyclin K and DDB1; compound concentration 36 nM): 0.7669 and 0.7566 | TR-FRET signal (CDK12–cyclin K and DDB1; compound concentration 62.6401 nM): 1.529 and 1.274 | TR-FRET signal (CDK12–cyclin K and DDB1; compound concentration 79.2001 nM): 1.336 and 1.393 | TR-FRET signal (CDK12–cyclin K and DDB1; compound concentration 158.4 nM): 1.979 and 2.065 | TR-FRET signal (CDK12–cyclin K and DDB1; compound concentration 244.8 nM): 3.0134 and 2.769 | TR-FRET signal (CDK12–cyclin K and DDB1; compound concentration 309.6 nM): 2.635 and 2.78 | TR-FRET signal (CDK12–cyclin K and DDB1; compound concentration 626.401 nM): 3.319 and 3.352 | TR-FRET signal (CDK12–cyclin K and DDB1; compound concentration 993.601 nM): 3.805 and 3.416 | TR-FRET signal (CDK12–cyclin K and DDB1; compound concentration 1252.8 nM): 3.754 and 3.678 | TR-FRET signal (CDK12–cyclin K and DDB1; compound concentration 2001.6 nM): 4.058 and 3.866 | TR-FRET signal (CDK12–cyclin K and DDB1; compound concentration 2448 nM): 3.936 and 3.906 | TR-FRET signal (CDK12–cyclin K and DDB1; compound concentration 9936.01 nM): 4.2719 and 4.125 | TR-FRET signal (CDK12–cyclin K and DDB1; compound concentration 20016 nM): 4.262 and 4.289 | EC50 (CDK12–cyclin K and DDB1; in vitro complex formation, 50 nM CDK12–cyclin K, 100 nM DDB1, text and figures, read-out: TR-FRET EC50): 0.178 ± 0.014 µM | EC50 (CDK12–cyclin K and DDB1; sheet MOESM7, read-out: log TR-FRET EC50 (converted)): 0.178 µM | EC50 (CDK12–cyclin K and DDB1; [6]): 0.178 µM
SMILES: COc1ccc(C)cc1N1C[C@@H](C(=O)Nc2nc3ccccc3[nH]2)CC1=O [Z11]
EC50 (HEK293T cells; Supplementary Fig. 5, HEK293T, CellTiter Glo, 72h, pre-treatment with 100 nM MLN4924, read-out: Viability EC50, with MLN4924): 1290 µM | EC50 (HEK293T cells; [2]): 1.07 µM | Toxicity rescue (HEK293T cells; Supplementary Table 2): 838%

IC50 (CDK12–cyclin K): 1940 nM | Lanthascreen raw signal, sheet CDK12 (CDK12–cyclin K; compound 1.02544 nM): 0.008768 and 0.008409 | Lanthascreen raw signal, sheet CDK12 (CDK12–cyclin K; compound 3.15521 nM): 0.009734 and 0.0102 | Lanthascreen raw signal, sheet CDK12 (CDK12–cyclin K; compound 9.46563 nM): 0.009031 and 0.008491 | Lanthascreen raw signal, sheet CDK12 (CDK12–cyclin K; compound 31.5521 nM): 0.008872 and 0.01072 | Lanthascreen raw signal, sheet CDK12 (CDK12–cyclin K; compound 99.3891 nM): 0.01101 and 0.009378 | Lanthascreen raw signal, sheet CDK12 (CDK12–cyclin K; compound 315.521 nM): 0.008266 and 0.00879 | Lanthascreen raw signal, sheet CDK12 (CDK12–cyclin K; compound 3155.21 nM): 0.006586 and 0.00831 | Lanthascreen raw signal, sheet CDK12 (CDK12–cyclin K; compound 10002 nM): 0.00787 and 0.005759 | DC50 [1]: 3.49 µM | Lanthascreen signal, sheet CDK2 (CDK2–cyclin A; Compound 1.02544 nM): 0.01113 and 0.009882 | Lanthascreen signal, sheet CDK2 (CDK2–cyclin A; Compound 3.15521 nM): 0.009971 and 0.01033 | Lanthascreen signal, sheet CDK2 (CDK2–cyclin A; Compound 9.46563 nM): 0.01229 and 0.009342 | Lanthascreen signal, sheet CDK2 (CDK2–cyclin A; Compound 31.5521 nM): 0.009577 and 0.009489 | Lanthascreen signal, sheet CDK2 (CDK2–cyclin A; Compound 99.3891 nM): 0.0109 and 0.009513 | Lanthascreen signal, sheet CDK2 (CDK2–cyclin A; Compound 315.521 nM): 0.01017 and 0.01118 | Lanthascreen signal, sheet CDK2 (CDK2–cyclin A; Compound 3155.21 nM): 0.009276 and 0.007116 | Lanthascreen signal, sheet CDK2 (CDK2–cyclin A; Compound 10002 nM): 0.008712 and 0.007113 | IC50 (CDK2–cyclin A; [3]): > 10000 nM | IC50 (CDK2–cyclin A; [4]): > 10000 nM | IC50 (CDK9–cyclin T; [5]): 2230 nM | Lanthascreen TR-FRET signal (raw ratio), sheet CDK9 (CDK9–cyclin T; compound 1.02544 nM): 0.01363 and 0.01444 | Lanthascreen TR-FRET signal (raw ratio), sheet CDK9 (CDK9–cyclin T; compound 3.15521 nM): 0.01374 and 0.01202 | Lanthascreen TR-FRET signal (raw ratio), sheet CDK9 (CDK9–cyclin T; compound 9.46563 nM): 0.01193 and 0.01374 | Lanthascreen TR-FRET signal (raw ratio), sheet CDK9 (CDK9–cyclin T; compound 31.5521 nM): 0.01293 and 0.01321 | Lanthascreen TR-FRET signal (raw ratio), sheet CDK9 (CDK9–cyclin T; compound 99.3891 nM): 0.01614 and 0.01565 | Lanthascreen TR-FRET signal (raw ratio), sheet CDK9 (CDK9–cyclin T; compound 315.521 nM): 0.01216 and 0.01193 | Lanthascreen TR-FRET signal (raw ratio), sheet CDK9 (CDK9–cyclin T; compound 3155.21 nM): 0.009114 and 0.00834 | Lanthascreen TR-FRET signal (raw ratio), sheet CDK9 (CDK9–cyclin T; compound 10002 nM): 0.005656 and 0.005947 | EC50 (CDK12–cyclin K and DDB1; [6]): 0.833 µM
SMILES: COc1cc2nc(CN3CCc4sccc4C3)[nH]c(=O)c2cc1OC [Z12]
EC50 (HEK293T cells; [2]): 1.37 µM | Toxicity rescue (HEK293T cells; Supplementary Table 2): 49%
